Target: human NaV subtype, like NaV 1.7 (Homo sapiens, UniProt Q15858)
Test: E-VIPR optical membrane potential assay with electrical stimulation
Assay type: cell-based
Details: active against one or more sodium channels; assay and NaV subtype not specified for Table 3; read-out: IC50 Binned Activity Data
From the text: Assays for Detecting and Measuring NaV Inhibition Properties of Compound E-VIPR Optical Membrane Potential Assay Method with Electrical Stimulation
Sodium channels are voltage-dependent proteins that can be activated by inducing membrane voltage changes by applying electric fields. The electrical stimulation instrument and methods of use are described in Ion Channel Assay Methods PCT/US01/21652, herein incorporated by reference and are referred to as E-VIPR. The instrument comprises a microtiter plate handler, an optical system for exciting the coumarin dye while simultaneously recording the coumarin and oxonol emissions, a waveform generator, a current- or voltage-controlled amplifier, and a device for inserting electrodes in well. Under integrated computer control, this instrument passes user-programmed electrical stimulus protocols to cells within the wells of the microtiter plate.
24 hours before the assay on E-VIPR, HEK cells expressing human NaV subtype, like NaV 1.7, are seeded in 384-well poly-lysine coated plates at 15,000-20,000 cells per well. Other subtypes are performed in an analogous mode in a cell line expressing the NaV of interest. HEK cells are grown in media (exact composition is specific to each cell type and NaV subtype) supplemented with 10% FBS (Fetal Bovine Serum, qualified; GibcoBRL #16140-071) and 1% Pen-Strep (Penicillin-Streptomycin; GibcoBRL #15140-122). Cells are grown in vented cap flasks, in 90% humidity and 10% CO2, to 100% confluence. They are usually split by trypsinization 1:10 or 1:20, depending on scheduling needs, and grown for 2-3 days before the next split.
100 mg/mL Pluronic F-127 (Sigma #P2443), in dry DMSO
Compound Plates: 384-well round bottom plate, e.g. Corning 384-well Polypropylene Round Bottom #3656
Cell Plates: 384-well tissue culture treated plate, e.g. Greiner #781091-1B
Bath1 buffer. Glucose 10 mM (1.8 g/L), Magnesium Chloride (Anhydrous), 1 mM (0.095 g/L), Calcium Chloride, 2 mM (0.222 g/L), HEPES 10 mM (2.38 g/L), Potassium Chloride, 4.5 mM (0.335 g/L), Sodium Chloride 160 mM (9.35 g/L).
Hexyl Dye Solution: Bath1 Buffer+0.5% β-cyclodextrin (make this prior to use, Sigma #C4767), 8 μM CC2-DMPE+2.5 μM DiSBAC6(3). To make the solution Add volume of 10% Pluronic F127 stock equal to volumes of CC2-DMPE+DiSBAC6(3). The order of preparation is first mix Pluronic and CC2-DMPE, then add DiSBAC6(3) while vortexing, then add Bath1+β-Cyclodextrin.
1) Pre-spot compounds (in neat DMSO) into compound plates. Vehicle control (neat DMSO), the positive control (20 mM DMSO stock tetracaine, 125 μM final in assay) and test compounds are added to each well at 160× desired final concentration in neat DMSO. Final compound plate volume will be 80 μL (80-fold intermediate dilution from 1 μL DMSO spot; 160-fold final dilution after transfer to cell plate). Final DMSO concentration for all wells in assay is 0.625%.
2) Prepare Hexyl Dye Solution.
3) Prepare cell plates. On the day of the assay, medium is aspirated and cells are washed three times with 100 μL of Bath1 Solution, maintaining 25 μL residual volume in each well.
4) Dispense 25 μL per well of Hexyl Dye Solution into cell plates. Incubate for 20-35 minutes at room temp or ambient conditions.
5) Dispense 80 μL per well of Bath1 into compound plates. Acid Yellow-17 (1 mM) is added and Potassium Chloride can be altered from 4.5 to 20 mM depending on the NaV subtype and assay sensitivity.
6) Wash cell plates three times with 100 μL per well of Bath1, leaving 25 μL of residual volume. Then transfer 25 uL per well from Compound Plates to Cell Plates. Incubate for 20-35 minutes at room temp/ambient condition
7) Read Plate on E-VIPR. Use the current-controlled amplifier to deliver stimulation wave pulses for typically 9 seconds and a scan rate of 400 Hz. A pre-stimulus recording is performed for 0.5 seconds to obtain the un-stimulated intensities baseline. […]

Sequence of human NaV subtype, like NaV 1.7 (Q15858 whole entry): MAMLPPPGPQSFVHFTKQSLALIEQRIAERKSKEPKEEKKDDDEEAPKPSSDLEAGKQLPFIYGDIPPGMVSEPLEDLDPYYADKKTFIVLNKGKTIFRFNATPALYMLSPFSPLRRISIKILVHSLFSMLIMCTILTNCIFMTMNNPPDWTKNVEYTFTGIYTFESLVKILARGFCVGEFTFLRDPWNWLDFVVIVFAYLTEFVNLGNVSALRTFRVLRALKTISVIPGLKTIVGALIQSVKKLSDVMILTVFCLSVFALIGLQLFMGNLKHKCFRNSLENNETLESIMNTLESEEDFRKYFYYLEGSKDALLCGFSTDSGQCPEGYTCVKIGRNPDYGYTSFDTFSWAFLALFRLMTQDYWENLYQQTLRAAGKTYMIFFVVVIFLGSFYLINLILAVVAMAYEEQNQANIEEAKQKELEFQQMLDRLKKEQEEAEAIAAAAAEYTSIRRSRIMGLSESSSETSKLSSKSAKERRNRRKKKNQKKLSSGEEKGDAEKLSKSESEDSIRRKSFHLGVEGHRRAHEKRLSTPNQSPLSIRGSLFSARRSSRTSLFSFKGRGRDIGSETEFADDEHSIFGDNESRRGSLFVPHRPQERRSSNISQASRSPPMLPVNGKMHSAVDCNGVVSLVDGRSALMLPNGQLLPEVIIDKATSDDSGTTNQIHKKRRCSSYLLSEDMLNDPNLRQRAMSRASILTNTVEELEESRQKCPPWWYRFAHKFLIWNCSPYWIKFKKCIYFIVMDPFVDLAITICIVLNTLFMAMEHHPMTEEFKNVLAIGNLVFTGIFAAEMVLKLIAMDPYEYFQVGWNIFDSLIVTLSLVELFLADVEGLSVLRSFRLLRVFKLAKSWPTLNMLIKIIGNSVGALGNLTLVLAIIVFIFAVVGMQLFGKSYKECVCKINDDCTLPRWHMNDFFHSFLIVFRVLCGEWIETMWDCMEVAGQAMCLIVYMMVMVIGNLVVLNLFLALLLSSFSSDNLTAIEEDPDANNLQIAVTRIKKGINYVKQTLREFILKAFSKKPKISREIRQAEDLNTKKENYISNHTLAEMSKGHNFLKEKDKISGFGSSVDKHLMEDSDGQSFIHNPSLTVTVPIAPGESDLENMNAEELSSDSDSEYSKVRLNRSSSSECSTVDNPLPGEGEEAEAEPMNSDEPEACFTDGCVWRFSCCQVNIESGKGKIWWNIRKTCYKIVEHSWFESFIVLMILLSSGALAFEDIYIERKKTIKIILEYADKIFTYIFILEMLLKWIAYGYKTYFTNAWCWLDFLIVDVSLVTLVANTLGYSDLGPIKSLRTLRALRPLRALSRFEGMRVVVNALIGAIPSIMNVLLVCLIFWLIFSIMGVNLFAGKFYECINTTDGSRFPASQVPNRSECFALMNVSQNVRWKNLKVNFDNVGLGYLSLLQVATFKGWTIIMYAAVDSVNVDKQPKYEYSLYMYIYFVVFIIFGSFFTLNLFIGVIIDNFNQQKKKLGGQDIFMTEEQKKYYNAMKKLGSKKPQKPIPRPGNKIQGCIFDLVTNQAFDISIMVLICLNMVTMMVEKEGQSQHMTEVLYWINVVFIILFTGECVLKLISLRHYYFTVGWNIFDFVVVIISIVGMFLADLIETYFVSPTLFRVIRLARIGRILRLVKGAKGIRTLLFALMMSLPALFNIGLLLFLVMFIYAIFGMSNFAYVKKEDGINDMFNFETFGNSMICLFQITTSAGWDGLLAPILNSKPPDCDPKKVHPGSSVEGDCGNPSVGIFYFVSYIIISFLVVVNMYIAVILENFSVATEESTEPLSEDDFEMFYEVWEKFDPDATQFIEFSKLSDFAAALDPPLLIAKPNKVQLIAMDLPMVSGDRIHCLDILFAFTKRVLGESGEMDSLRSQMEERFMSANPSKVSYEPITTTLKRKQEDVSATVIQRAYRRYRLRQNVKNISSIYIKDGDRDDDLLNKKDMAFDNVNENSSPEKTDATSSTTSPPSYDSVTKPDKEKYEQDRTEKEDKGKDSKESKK

Row | SMILES | IC50 [nM]
1 | CC(C)O[C@@H]1CC2(CCN(C(=O)c3ccc(N4CCCCC4C)cn3)CC2)Oc2ccc(F)cc21 (stereo partly shown) [Compound 54] | ≤ 2000
2 | CC(C)Oc1ccc(C(=O)N2CCC3(CC2)C[C@@H](OC(C)C)c2cc(F)ccc2O3)c(OC(F)F)c1 [Compound 55] | ≤ 2000
3 | CC(C)O[C@@H]1CC2(CCN(C(=O)c3ccc(S(=O)(=O)CC4CCC4)cn3)CC2)Oc2ccc(F)cc21 [Compound 58] | ≤ 2000
4 | CC(C)O[C@@H]1CC2(CCN(C(=O)c3ccc(S(=O)(=O)C(C)(C)C)cc3)CC2)Oc2ccc(F)cc21 [Compound 59] | ≤ 2000
5 | CC1CCN(c2ccc(C(=O)N3CCC4(CC3)C[C@@H](OC(C)C)c3cc(F)ccc3O4)nc2)CC1 [Compound 61] | ≤ 2000
6 | CC[C@H](C)Nc1ccc(C(=O)N2CCC3(CC2)C[C@@H](OC(C)C)c2cc(F)ccc2O3)nc1 [Compound 64] | ≤ 2000
7 | CC[C@@H](C)Nc1ccc(C(=O)N2CCC3(CC2)C[C@@H](OC(C)C)c2cc(F)ccc2O3)nc1 [Compound 66] | ≤ 2000
8 | CC(C)O[C@@H]1CC2(CCN(C(=O)c3ccc(N4CCC[C@@H]4C)cn3)CC2)Oc2ccc(F)cc21 [Compound 67] | ≤ 2000
9 | CC(C)O[C@@H]1CC2(CCN(C(=O)c3ccc(S(=O)(=O)C(C)C)cc3)CC2)Oc2ccc(F)cc21 [Compound 68] | ≤ 2000
10 | CC(C)O[C@@H]1CC2(CCN(C(=O)c3ccc(N4CCC[C@H]4C)cn3)CC2)Oc2ccc(F)cc21 [Compound 75] | ≤ 2000
11 | Cc1cc(C(=O)N2CCC3(CC2)C[C@H](O)c2cc(F)ccc2O3)ccc1OC(C)C [Compound 77] | ≤ 2000
12 | CC(C)OC1CC2(CCN(C(=O)c3ccc(S(=O)(=O)C(C)C)cc3)CC2)Oc2c(F)cccc21 (stereo not shown) [Compound 78] | ≤ 2000
13 | COc1cc(C(=O)N2CCC3(CC2)CC(OC(C)C)c2ccccc2S3(=O)=O)ccc1OC(C)C (stereo not shown) [Compound 81] | ≤ 2000
14 | CC(C)O[C@@H]1CC2(CCN(C(=O)c3ccc(S(=O)(=O)C4CC4)cc3)CC2)Oc2ccc(F)cc21 [Compound 82] | ≤ 2000
15 | Cc1cc(S(C)(=O)=O)ccc1C(=O)N1CCC2(CC1)C[C@@H](OC(C)C)c1cc(F)ccc1O2 [Compound 85] | 2000 to 5000
16 | Cc1cc(C(F)F)n2ncc(C(=O)N3CCC4(CC3)C[C@@H](OC(C)C)c3ccccc3O4)c2n1 [Compound 87] | ≤ 2000

Row | SMILES | IC50 [nM]
17 | Cc1cc(C(=O)N2CCC3(CC2)CC(OC(C)C)c2cnccc2O3)ccc1OC(C)C (stereo not shown) [Compound 89] | 2000 to 5000
18 | Cc1cc(C(=O)N2CCC3(CC2)CC(OC(C)C)c2cccc(F)c2O3)ccc1S(=O)(=O)C(C)C (stereo not shown) [Compound 90] | ≤ 2000
19 | Cc1cc(C(=O)N2CCC3(CC2)C[C@@H](OC(C)C)c2cc(F)ccc2O3)ccc1OC1COC1 [Compound 92] | ≤ 2000
20 | CCC1COCCN1c1ccc(C(=O)N2CCC3(CC2)C[C@@H](OC(C)C)c2cc(F)ccc2O3)nc1 (stereo partly shown) [Compound 93] | ≤ 2000
21 | COc1cc(C(=O)N2CCC3(CC2)Oc2ccccc2C(OC(C)C)C3C)ccc1OC(C)C (stereo not shown) [Compound 94] | ≤ 2000
22 | CC(C)O[C@@H]1CC2(CCN(C(=O)c3ccc(N4CC5CC4CO5)cn3)CC2)Oc2ccc(F)cc21 (stereo partly shown) [Compound 95] | ≤ 2000
23 | Cc1cc(C(=O)N2CCC3(CCc4ccccc4O3)CC2)ccc1OC(C)C [Compound 96] | ≤ 2000
24 | CC(C)O[C@@H]1CC2(CCN(C(=O)c3ccc(N(C)CCN(C)C)cn3)CC2)Oc2ccc(F)cc21 [Compound 97] | > 5000
25 | COc1cc(C(=O)N2CCC3(CC2)C[C@@H](O)c2cc(F)ccc2O3)ccc1OC(C)C [Compound 98] | ≤ 2000
26 | CC(C)Oc1ccc(C(=O)N2CCC3(CC2)CC(OC(C)C)c2ccccc2S3(=O)=O)cc1 (stereo not shown) [Compound 99] | ≤ 2000
27 | CCOC1Cc2ccccc2OC12CCN(C(=O)c1ccc(OC(C)C)c(OC)c1)CC2 (stereo not shown) [Compound 100] | ≤ 2000
28 | Cc1nc(C(=O)N2CCC3(CC2)C[C@@H](OC(C)C)c2cc(F)ccc2O3)ccc1S(=O)(=O)C(C)C [Compound 101] | > 5000
29 | CC(C)O[C@@H]1CC2(CCN(C(=O)c3ccc(N4CCCC4)cn3)CC2)Oc2ccccc21 [Compound 102] | > 5000
30 | CC(C)O[C@@H]1CC2(CCN(C(=O)c3ccc(N4CC(S(C)(=O)=O)C4)cn3)CC2)Oc2ccc(F)cc21 [Compound 103] | > 5000
31 | Cc1cc(C(=O)N2CCC3(CC2)CC(OC(C)C)c2nn(C)cc2O3)ccc1OC(C)C (stereo not shown) [Compound 104] | ≤ 2000
32 | COc1cc(C(=O)N2CCC3(CC2)CC(OCc2cccnc2)c2ccccc2O3)ccc1OC(C)C (stereo not shown) [Compound 105] | ≤ 2000

Other lines, results leading:

Row | IC50 [nM] | SMILES
33 | ≤ 2000 | CCOCC1CC2(CCN(C(=O)c3ccc(OC(C)C)c(OC)c3)CC2)Oc2ccccc21 (stereo not shown) [Compound 56]
34 | ≤ 2000 | COc1cc(C(=O)N2CCC3(CC2)C[C@@H](OC(C)C)c2ccccc2O3)ccc1C(C)(C)O [Compound 57]
35 | ≤ 2000 | COc1cc(C(=O)N2CCC3(CC2)CC(OC(C)C)c2ccccc2O3)ccc1C(C)(C)C (stereo not shown) [Compound 60]
36 | ≤ 2000 | COc1cc(C(=O)N2CCC3(CC2)CC(OC(C)C)c2ccccc2O3)ccc1C(C)(C)CO (stereo not shown) [Compound 62]
37 | ≤ 2000 | COc1cc(C(=O)N2CCC3(CC2)CC(COC(F)F)c2ccccc2O3)ccc1OC(C)C (stereo not shown) [Compound 63]
38 | 2000 to 5000 | CC(C)O[C@H]1CC2(CCN(C(=O)c3ccc4[nH]ncc4c3)CC2)Oc2ccccc21 [Compound 65]
39 | ≤ 2000 | COc1nc(C)ccc1C(=O)N1CCC2(CC1)C[C@@H](OC(C)C)c1ccccc1O2 [Compound 69]
40 | 2000 to 5000 | COc1cc(C(=O)N2CCC3(CC2)C[C@@H](OC(C)C)c2ccccc2O3)ccc1OC(F)F [Compound 70]
41 | ≤ 2000 | COc1cc(C(=O)N2CCC3(CC2)C[C@H](OC(C)C)c2ccccc2O3)ccc1C(C)(C)CO [Compound 71]
42 | ≤ 2000 | Cc1cc(C(=O)N2CCC3(CC2)C[C@@H](OC(C)C)c2ccccc2O3)ccc1OC(C)C [Compound 72]
43 | ≤ 2000 | CC(C)Oc1ccc(C(=O)N2CCC3(CC2)C[C@@H](OC(C)C)c2ccccc2O3)c(F)c1 [Compound 74]
44 | ≤ 2000 | CC(C)Oc1ccc(C(=O)N2CCC3(CC2)CC(OC(C)C)c2ccccc2O3)cc1C#N (stereo not shown) [Compound 76]
45 | ≤ 2000 | COc1cc(C(=O)N2CCC3(CC2)C[C@@H](OC(C)C)c2cc(F)ccc2O3)ccc1OC(F)F [Compound 79]
46 | ≤ 2000 | Cc1nc(C(=O)N2CCC3(CC2)C[C@@H](OC(C)C)c2ccccc2O3)ccc1OC(C)C [Compound 80]
47 | ≤ 2000 | COc1cc(C(=O)N2CCC3(CC2)CC(CSC)c2ccccc2O3)ccc1OC(C)C (stereo not shown) [Compound 83]
48 | ≤ 2000 | COc1cc(C(=O)N2CCC3(CC2)CC(OC(C)C)c2cccnc2O3)ccc1OC(C)C (stereo not shown) [Compound 84]
49 | > 5000 | COc1cc(C(=O)N2CCC3(CC2)CC(OCCS(C)(=O)=O)c2ccccc2O3)ccc1OC(C)C (stereo not shown) [Compound 86]
50 | ≤ 2000 | CC(C)OC1CC2(CCN(C(=O)c3ccccc3OC(F)F)CC2)Oc2ccccc21 (stereo not shown) [Compound 88]
51 | ≤ 2000 | CC(C)Oc1ccc(C(=O)N2CCC3(CC2)C[C@@H](OC(C)C)c2ccccc2O3)cc1O [Compound 91]
52 | ≤ 2000 | COc1cc(C(=O)N2CCC3(CC2)C[C@H](OC(C)C)c2ccccc2O3)ccc1OCCCO [Compound 106]
